Measurements as given in US20030104945A1, “2,4-Diamino-1,3,5-triazines, their preparation, and their use as herbicides and plant growth regulators” (priority 2001, published 2003).

What was measured:
Type in all cases: in vivo
[1] = tested on: harmful plants such as Stellaria media, Lolium multiflorum, Amaranthus retroflexus, Sinapis alba, Avena sativa and Setaria viridis; experiment: Pre-emergence herbicidal action (greenhouse pot test); conditions: application rate of 1 kg or less active substance per hectare, scored after 3 to 4 weeks vs untreated controls
Source text: Seeds and rhizome sections of monocotyledonous and dicotyledonous harmful plants are placed in sandy loam in plastic pots and covered with soil. The compounds according to the invention which are formulated in the form of wettable powders or emulsion concentrates at various rates, are then applied to the surface of the covering soil as aqueous suspension or emulsion at an application rate of 600 to 800 l of water per ha (converted).
After the treatment, the pots are placed in the greenhouse and kept under good growth conditions for the weeds. Visual scoring of the plant damage or the adverse effect on emergence is done after the test plants have emerged after an experimental period of 3 to 4 weeks in comparison with untreated controls.

[2] = tested on: harmful plants such as Sinapis alba, Echinochloa crus-galli, Lolium multiflorum, Stellaria media, Cyperus iria, Amaranthus retroflexus, Setaria viridus and …; experiment: Post-emergence herbicidal action (greenhouse pot test); conditions: three-leaf stage, application rate of 1 kg and less of active substance per hectare, scored after approx. 3 to 4 weeks vs untreated controls
Procedure: Seeds or rhizome sections of monocotyledonous and dicotyledonous weeds are placed in sandy loam soil in plastic pots, covered with soil and grown in the greenhouse under good growth conditions. Three weeks after sowing, the experimental plants are treated at the three-leaf stage. The compounds according to the invention, which are formulated as wettable powders or as emulsion concentrates, are sprayed at various rates onto the green plant organs at an application rate of 600 to 800 l of water per ha (converted). After the experimental plants have remained in the greenhouse for approx. 3 to 4 weeks under optimal growth conditions, the effect of the compositions is scored visually in comparison with untreated controls. The substances according to the invention also have a good herbicidal action against a broad spectrum of economically important grass weeds and broad-leaved weeds when applied post-emergence.

[3] = tested on: harmful plants which are typical of rice crops such as, for example, Cyperus monti, Echinochloa crus-galli and Sagittaria pygmaea; experiment: Activity against harmful plants in rice (paddy rice conditions); conditions: poured into paddy water at various dosages; scored about three weeks after application vs untreated controls; further: test concentration or dose not given here
Procedure: Transplanted and seeded rice and typical grass weeds and broad-leaved weeds in rice crops are grown in the greenhouse under paddy rice conditions (depth of the paddy water: 2-3 cm) in sealed plastic pots until they have reached the three-leaf stage (Echinochloa crus-galli 1.5-leaf). They are then treated with the compounds according to the invention. To this end, the formulated active substances are suspended, dissolved or emulsified in water and the product is poured into the paddy water of the test plants at various dosages. After the treatment has been carried out thus, the test plants are placed in the greenhouse under optimal growth conditions and kept like this over the entire experimental period.
About three weeks after application, the evaluation is carried out by is of visually scoring the plant damage in comparison with untreated controls.

CC(C)(F)c1nc(N)nc(NC(CC2CC2)[C@@H]2C[C@H]2c2ccccc2)n1 (relative stereo) [Example 5-1]
very good herbicidal activity: herbicidal activity, visual scoring of plant damage or adverse effect on emergence [1] | herbicidal activity, visual scoring [2] | herbicidal activity, visual scoring of plant damage [3]

CC(C)c1nc(N)nc(NC(CC2CC2)[C@@H]2C[C@H]2c2ccccc2)n1 (relative stereo) [Example 5-2]
very good herbicidal activity: herbicidal activity, visual scoring of plant damage or adverse effect on emergence [1] | herbicidal activity, visual scoring [2] | herbicidal activity, visual scoring of plant damage [3]

CCC(F)(CC)c1nc(N)nc(NC(CC2CC2)[C@@H]2C[C@H]2c2ccccc2)n1 (relative stereo) [Example 5-3]
very good herbicidal activity: herbicidal activity, visual scoring of plant damage or adverse effect on emergence [1] | herbicidal activity, visual scoring [2] | herbicidal activity, visual scoring of plant damage [3]

CCC(F)c1nc(NC=O)nc(NC(CC2CC2)[C@@H]2C[C@H]2c2ccccc2)n1 (relative stereo) [Example 5-4]
very good herbicidal activity: herbicidal activity, visual scoring of plant damage or adverse effect on emergence [1] | herbicidal activity, visual scoring [2] | herbicidal activity, visual scoring of plant damage [3]
